Data taken from US8653261B2, “Modified actinomycin-based nucleic acid stains and methods of their use” (priority 2008, dated 2014).

Columns and labels:
HeLa cells = test: High content imaging of stained HeLa cells with valinomycin treatment; format: cell-based; details: for killing of HeLa cells: 24 hours
Experimental: HeLa cells were either untreated or treated with two concentrations (15 μM and 120 μM) of valinomycin (VLM) as a killing agent for 24 hours before labeling with Compound 7 and with the nuclear counterstain Hoechst 33342 dye (Invitrogen Corporation, Carlsbad, Calif.). At 24 hours of treatment, normal cell growth medium containing 2× final concentration of Hoechst 33342 and Compound 7 was added to the existing medium to result in 1× final concentration. Cells were incubated for 30 minutes at 37° C. and then the drug/dye mixture was replaced with PBS for imaging using a high content automated imaging system (ArrayScan VTI from Thermo/Fisher) using a Texas Red filter set.

dead cells = details: dead cell identification; cited from earlier work
fixed cells = details: cited from earlier work
Jurkat T cells = test: Imaging flow cytometry of stained Jurkat cells with camptothecin treatment; format: cell-based; details: 1 μM camptothecin, 4 hours
Experimental: Jurkat T cells were incubated in the presence or absence of 1 μM camptothecin (CPT) for 4 hours to induce apoptosis, then stained with 2.5 μM Compound 7 for 15 minutes at room temperature and analyzed on an AMNIS ImageStream multispectral imaging flow cytometer. Gating on 10,000 collected events with intermediate brightfield (BF) area and high BF aspect ratio (width:height) was performed to distinguish single cells from debris and multi-cellular clumps. Cells with nuclear dye uptake were gated (R3) on the Intensity 180 plot. Cells untreated with camptothecin are shown in the top middle histogram of FIG. 3, with 8.0% stain positive (dead cells) as identified in the R3 gate. The positively stained cells show typical brightfield morphology of dead cells, while the cells negative (live cells) show typical brightfield morphology of live cells.
Cells treated with the apoptotic inducing agent camptothecin (FIG. 3B) (bottom middle histogram), with 68.4% stain positive as identified in the R3 gate. The positively stained cells show typical brightfield morphology of dead cells and stained nuclei typical of apoptosis and cell death that is condensed and fragmented, while the cells negative for staining (live cells) show typical brightfield morphology of live cells. […] Cells negative for stain show morphology typical of healthy cells.

CCOc1ccc(-c2nc3ccc(-c4nc5ccc(N6CCN(C)CC6)cc5[nH]4)cc3[nH]2)cc1 [Hoechst 33342]
nuclear counterstain labeling of HeLa cells (HeLa cells; untreated or valinomycin-treated cells): labeling both live and dead cells

CC(C)[C@@H]1NC(=O)[C@H](C)OC(=O)[C@@H](C(C)C)NC(=O)[C@@H](C(C)C)OC(=O)[C@H](C(C)C)NC(=O)[C@H](C)OC(=O)[C@@H](C(C)C)NC(=O)[C@@H](C(C)C)OC(=O)[C@H](C(C)C)NC(=O)[C@H](C)OC(=O)[C@@H](C(C)C)NC(=O)[C@@H](C(C)C)OC1=O [valinomycin]
killing of HeLa cells (HeLa cells; 15 μM valinomycin): less effective in killing HeLa cells | killing of HeLa cells (HeLa cells; 120 μM valinomycin): effective in killing HeLa cell

Cc1c2oc3c(C)c(N)cc(C(=O)N[C@@H]4C(=O)N[C@H](C(C)C)C(=O)N5CCC[C@H]5C(=O)N(C)CC(=O)N(C)[C@@H](C(C)C)C(=O)O[C@@H]4C)c3nc-2c(C(=O)N[C@@H]2C(=O)N[C@H](C(C)C)C(=O)N3CCC[C@H]3C(=O)N(C)CC(=O)N(C)[C@@H](C(C)C)C(=O)O[C@@H]2C)c(N)c1=O [Compound 7-AAD, 7-aminoactinomycin D]
time of staining process to fully equilibrate (dead cells): about 30 minutes | variability of DNA content cell cycle histogram (% CV of the G0G1 peak) (fixed cells): high degree of variability

CC[C@@]1(O)C(=O)OCc2c1cc1n(c2=O)Cc2cc3ccccc3nc2-1 [camptothecin]
cell death measurable by staining with Compound 7 (Jurkat T cells): induced significant cell death
